According to patent US8841413B2, “Antidiabetic compounds” (Cadila Healthcare Limited, priority 2006, dated 2014):

Tests used:
C57BL/6J mice = test: Acute single dose 120-min time-course experiment, in vivo glucose reduction in C57BL/6J mice; design: unit not given here; details: male C57BL/6J mice, Mean ± SEM
Method: All the animal experiments were carried out according to the internationally valid guidelines following approval by the ‘Zydus Research Center animal ethical committee’. […] Two days prior to the study, the animals were randomised and divided into 5 groups (n=6), based upon their fed glucose levels. On the day of experiment, food was withdrawn from all the cages, water was given ad-libitum and were kept for overnight fasting. Vehicle (normal saline)/test/standard compounds were administered intraperitoneally (i.p.) or orally, on a body weight basis. […] Blood samples were centrifuged and the separated serum was immediately subjected for the glucose estimation. Serum for insulin estimation was stored at −70° C. until used for the insulin estimation. The glucose estimation was carried out with DPEC-GOD/POD method (Ranbaxy Fine Chemicals Limited, Diagnostic division, India), using Spectramax-190, in 96-microwell plate reader (Molecular devices Corporation, Sunnyvale, Calif.). […] The AUC and BCAUC obtained from graphs were analyzed for one way ANOVA, followed by Dunnett's post test, using Graph Pad prism software. Furthermore, the insulin estimation was carried out using rat/mouse insulin ELISA kit (Linco research, Mo. USA).

db/db mice = test: In vivo glucose reduction in db/db mice; details: oral (p.o) administration, FIG. 10
Method: Acute single dose 120-min time-course experiments were carried out in male C57BL/6J or db/db mice, age 8-12 weeks, bred in-house. Animals were housed in groups of 6 animals per cage, for a week, in order to habituate them to vivarium conditions (25±4° C., 60-65% relative humidity, 12:12 h light:dark cycle, with lights on at 7.30 am). All the animal experiments were carried out according to the internationally valid guidelines following approval by the ‘Zydus Research Center animal ethical committee’. […] Two days prior to the study, the animals were randomised and divided into 5 groups (n=6), based upon their fed glucose levels. On the day of experiment, food was withdrawn from all the cages, water was given ad-libitum and were kept for overnight fasting. Vehicle (normal saline)/test/standard compounds were administered intraperitoneally (i.p.) or orally, on a body weight basis. […] The glucose estimation was carried out with DPEC-GOD/POD method (Ranbaxy Fine Chemicals Limited, Diagnostic division, India), using Spectramax-190, in 96-microwell plate reader (Molecular devices Corporation, Sunnyvale, Calif.). […] The AUC and BCAUC obtained from graphs were analyzed for one way ANOVA, followed by Dunnett's post test, using Graph Pad prism software. […]

[1] = system: RIN5F (Rat Insulinoma) cells; test: In vitro glucose-dependent insulin secretion (RIN5F cell assay); format: cell-based; details: 16.7 mM glucose load, mean ± S.D., n = 3
human glucagon receptor = target: T1, human glucagon receptor (Homo sapiens, UniProt P47871); test: In vitro human glucagon antagonist activity (inhibition of cAMP production), CHO/human glucagon R cells; format: cell-based
T1 construct: The full-length cDNA was cloned in pcDNA3.1(Invitrogen); expressed in transfected cells

DPP IV = DPP IV (Homo sapiens, UniProt P27487); test: Stability against DPP IV enzyme; format: in vitro ADME
Summary of the method: (§1)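 Reactions were stopped with 10% (v/v) TFA/H2O, then analysed by HPLC on a column equilibrated in TFA/H2O at 1 mL/min. Absorbance was read at 206 nm by UV, and peaks were collected manually for ESI-MS identification.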

[2] = Stability in human plasma; format: in vitro ADME
Summary of the method: as §1

[3] = Stability in simulated gastric fluid; format: in vitro ADME; details: 2 μM, 37° C., pH 1.5, pepsin
Summary of the method: as §1

[4] = Stability in simulated intestinal fluid; format: in vitro ADME; details: 2 μM, 37° C., pH 7.5
Summary of the method: as §1

[5] = Stability against liver microsomes; format: in vitro ADME, human
Summary of the method: as §1

T1 sequence (P47871 26-477): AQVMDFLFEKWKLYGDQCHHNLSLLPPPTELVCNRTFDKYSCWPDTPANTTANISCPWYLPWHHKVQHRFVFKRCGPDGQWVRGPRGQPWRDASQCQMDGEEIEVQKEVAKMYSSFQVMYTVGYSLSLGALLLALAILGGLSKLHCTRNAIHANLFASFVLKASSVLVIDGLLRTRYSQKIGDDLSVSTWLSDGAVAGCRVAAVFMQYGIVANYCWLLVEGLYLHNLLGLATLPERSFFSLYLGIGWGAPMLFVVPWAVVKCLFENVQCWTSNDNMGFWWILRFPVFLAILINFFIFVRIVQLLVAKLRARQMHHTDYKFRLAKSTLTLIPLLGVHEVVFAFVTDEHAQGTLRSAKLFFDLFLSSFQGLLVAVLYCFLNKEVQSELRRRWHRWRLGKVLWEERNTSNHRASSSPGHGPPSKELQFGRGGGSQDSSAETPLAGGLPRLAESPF
Sequence of DPP IV (P27487 whole entry, species assumed): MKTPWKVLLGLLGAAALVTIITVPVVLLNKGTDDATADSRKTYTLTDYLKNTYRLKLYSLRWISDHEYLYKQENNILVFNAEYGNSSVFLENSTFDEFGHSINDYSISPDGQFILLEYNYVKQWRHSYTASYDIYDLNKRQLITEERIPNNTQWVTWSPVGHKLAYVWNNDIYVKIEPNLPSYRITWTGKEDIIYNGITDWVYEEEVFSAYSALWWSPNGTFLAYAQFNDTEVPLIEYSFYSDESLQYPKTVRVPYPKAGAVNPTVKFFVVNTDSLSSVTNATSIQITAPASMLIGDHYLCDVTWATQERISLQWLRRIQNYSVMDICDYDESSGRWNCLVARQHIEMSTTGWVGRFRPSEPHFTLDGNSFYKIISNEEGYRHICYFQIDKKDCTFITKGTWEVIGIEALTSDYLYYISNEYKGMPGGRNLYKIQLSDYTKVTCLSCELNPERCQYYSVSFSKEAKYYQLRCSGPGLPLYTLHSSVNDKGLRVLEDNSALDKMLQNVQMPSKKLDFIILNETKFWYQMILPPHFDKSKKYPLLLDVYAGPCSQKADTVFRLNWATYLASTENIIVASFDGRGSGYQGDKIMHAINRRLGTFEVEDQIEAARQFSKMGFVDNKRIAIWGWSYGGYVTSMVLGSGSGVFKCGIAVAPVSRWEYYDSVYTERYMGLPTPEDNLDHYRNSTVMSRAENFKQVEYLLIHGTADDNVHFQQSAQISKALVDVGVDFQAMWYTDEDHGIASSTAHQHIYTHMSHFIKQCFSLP

CCc1cc(OC)ccc1-c1ccc(CC(NC(=O)[C@H](CC(=O)O)NC(=O)[C@H](CO)NC(=O)[C@@H](NC(=O)C(C)(Cc2ccccc2F)NC(=O)[C@@H](NC(=O)CNC(=O)[C@H](CCC(N)=O)NC(=O)C(C)(C)NC(=O)[C@@H](N)Cc2c[nH]cn2)[C@@H](C)O)[C@@H](C)O)C(=O)NC(Cc2ccc(-c3ccccc3C(F)(F)F)cc2)C(N)=O)cc1 (single isomer, unassigned) [Seq. ID. No. 32, H-Aib-QGT-(α-Me-2F-Phe)-TSD-Bip(OMe)-Bip(2CF3)]
blood glucose level (C57BL/6J mice; 10 nM/kg, i.p, 0 min): 182 ± 2.3 | blood glucose level (C57BL/6J mice; 10 nM/kg, i.p, 30 min): 110 ± 2.3 | blood glucose level (C57BL/6J mice; 10 nM/kg, i.p, 60 min): 112 ± 3.0 | blood glucose level (C57BL/6J mice; 10 nM/kg, i.p, 120 min): 112 ± 1.9 | blood glucose level (C57BL/6J mice; 2 μM/kg, oral, 0 min): 181 ± 2.5 | blood glucose level (C57BL/6J mice; 2 μM/kg, oral, 30 min): 117 ± 3.3 | blood glucose level (C57BL/6J mice; 2 μM/kg, oral, 60 min): 112 ± 4.0 | blood glucose level (C57BL/6J mice; 2 μM/kg, oral, 120 min): 108 ± 2.9 | in vivo glucose reduction (in words) (db/db mice): glucose reduction

CCc1cc(OC)ccc1-c1ccc(CC(NC(=O)[C@H](CC(=O)O)NC(=O)[C@H](CO)NC(=O)[C@@H](NC(=O)C(C)(Cc2ccccc2F)NC(=O)[C@@H](NC(=O)CNC(=O)[C@H](CCC(N)=O)NC(=O)[C@H](C)NC(=O)[C@@H](N)Cc2c[nH]cn2)[C@@H](C)O)[C@@H](C)O)C(=O)NC(Cc2ccc(-c3ccccc3C(F)(F)F)cc2)C(N)=O)cc1 (single isomer, unassigned) [compound 28]
Insulin secretion ([1]; 0.1 nM test compd.): 12.0 ± 0.14 pg/µg/h | Insulin secretion ([1]; 1 nM test compd.): 14.3 ± 0.12 pg/µg/h | Insulin secretion ([1]; 10 nM test compd.): 27.8 ± 0.32 pg/µg/h | Human Glucagon receptor antagonistic activity, inhibition of cAMP production of Glucagon peptide (human glucagon receptor; 1 nM test compound (fourth concentration column, between 100 nM and 10 μM) with saturated concentration of glucagon peptide): 0 pmol/ml/μg prt | Human Glucagon receptor antagonistic activity, inhibition of cAMP production of Glucagon peptide (human glucagon receptor; 1 nM test compound with saturated concentration of glucagon peptide): 4 ± 0.06 pmol/ml/μg prt | Human Glucagon receptor antagonistic activity, inhibition of cAMP production of Glucagon peptide (human glucagon receptor; 10 nM test compound with saturated concentration of glucagon peptide): 3 ± 0.11 pmol/ml/μg prt | Human Glucagon receptor antagonistic activity, inhibition of cAMP production of Glucagon peptide (human glucagon receptor; 100 nM test compound with saturated concentration of glucagon peptide): 0 pmol/ml/μg prt | Human Glucagon receptor antagonistic activity, inhibition of cAMP production of Glucagon peptide (human glucagon receptor; 10 μM test compound with saturated concentration of glucagon peptide): 0 pmol/ml/μg prt | % degradation in 24 h when incubated with DPP-IV enzyme (DPP IV; 2 μM, 37° C., 24 h): 72% | half-life at 2 μM (DPP IV; DPP IV enzyme, pH 7.8, 37° C., read-out: half-life (t1/2) with DPP-IV enzyme): 9 h | % degradation in 24 h when incubated with human plasma ([2]; 2 μM, 37° C., 24 h): 70% | half-life at 2 μM ([2]; human, pooled human plasma, pH 7.8, 37° C., read-out: half-life (t1/2) in human plasma): 8 h | % degradation in 24 h when incubated with simulated gastric fluid ([3]; 24 h): 12% | half-life (t1/2) in simulated gastric fluid [3]: (8) h | % degradation in 24 h when incubated with simulated intestinal fluid ([4]; 24 h): 42% | half-life (t1/2) in simulated intestinal fluid [4]: (6) h | % degradation in 24 h when incubated with liver microsomes ([5]; 2 μM, 37° C., 24 h): 78% | half-life at 2 μM ([5]; human, human liver microsomes, pH 7.8, 37° C., read-out: half-life (t1/2) with liver microsomes): 1 h
